Columns and labels:
TNF-α-induced SIRS = assay: TNF-α-induced systemic inflammatory response syndrome (SIRS) in mice; type: in vivo, mouse; settings: 5 mg/kg i.v. 15 min before mTNF-α 0.38 mg/kg; C57BL/6J mice
Excerpt: To confirm that the screening strategy leads to hits functionally active in vivo, we tested one of the hits for its ability to protect against RIPK-driven inflammation in TNF-α-induced systemic inflammatory response syndrome (SIRS). This mouse model of sterile sepsis[32] is dependent on RIPK1 and RIPK3 kinase activity and independent of apoptosis and inflammasome activity.
Representative blots and quantification of p-RIPK3/RIPK3 and p-MLKL/MLKL ratios in fold-change from control. Blots were normalized to endogenous β-actin.
Nec-1 was positive control for TNF-induced SIRS protection. Body temperature and mortality were monitored up to 96 h. Further details are provided as Supplementary Information.
Animal studies, injections and monitoring. Male C57BL/6J mice with 18-26 g (Charles River Laboratories International, Inc., Wilmington, MA, USA) were used at the age of 8-14 weeks. Five to seven animals were included in each experimental group. All animal experiments were carried out with the permission of local animal ethical committee in accordance with the EU Directive (2010/63/EU), Portuguese laws (DL113/2013, 2880/2015, 260/2016) and all relevant legislations. Animals received humane care in a temperature-controlled environment with a 12 h light-dark cycle and ad libitum access to pelleted chow and water, complying with the Institute’s guidelines, and as outlined in the “Guide for the Care and Use of Laboratory Animals” prepared by the National Academy of Sciences and published by the National Institutes of Health (NIH publication 86-23 revised 1985). […] Nec-1 was diluted as follows (v/v): 48% PBS 1X, 17% DMSO and 35% PEG 400. […] All injections were administered intravenously (i.v.) in 100 µL volume each. Body temperature was recorded on mice pre-shaven back using a non-contact infrared thermometer suitable for animal use (BIO-IRB153; BioSeb, Vitrolles, France). Body temperature and mortality were monitored up to 96 h. Animals were euthanized by inhalative induction of narcosis with isoflurane at the end of the experiment, or at humane endpoints according to the Clinical Severity Score ^59.

[1] = Human microsomal clearance (in vitro); type: in vitro ADME; settings: microsomes, read-out: Human microsomal clearance (in vitro) rate
Jurkat E6.1 cells = assay: Apoptosis modulation, caspase-3/-7 activity in Jurkat E6.1 cells + CHX, 8 h; type: cell-based, human; settings: Jurkat E6.1 + 0.5 μg/mL CHX
Procedure: Since apoptosis and necroptosis share key molecular players[20] and some RIPK3 necroptosis inhibitors may induce caspase-dependent cytotoxicity, hit compounds were tested for modulation of apoptosis activity in step three of the HTS workflow. Preliminary tests prior to screening encompassed the evaluation of several apoptosis inducers, such as FasL, doxorubicin, cycloheximide (CHX) and staurosporine, for their capability to modulate caspase-3/-7 activity in human Jurkat E6.1 T-cells, using Z-VAD-FMK and SN-2668/Nec-1 as negative and positive controls, respectively. […]
Adenylate kinase (AK) and lactate dehydrogenase (LDH) release from damaged cells were measured using the Toxilight BioAssay Kit (Lonza, Basel, Switzerland) and the Cytotoxicity Detection Kit (Roche Diagnostics GmbH, Mannheim, Germany), respectively. Adenosine triphosphate (ATP) metabolism was evaluated using CellTiter-Glo^TM Luminescent Cell Viability Assay (Promega, Madison, WI, USA). Apoptosis was determined by the measurement of caspase-3/-7 activity using the Caspase-Glo® 3/7 Assay (Promega) according to the manufacturer’s instructions. Cellular metabolic activity was measured using CellTiter 96® Aqueous Non-Radioactive Cell Proliferation (MTS) Assay (Promega). […]
Primary high-throughput screen. […] Eight hours after co-incubation of L929 cells with mTNF-α and test compounds, AK release was evaluated. […]

Structure (SMILES) | Survival in TNF-α-induced SIRS (TNF-α-induced SIRS) | TNF-α shock-associated hypothermia (body temperature) (TNF-α-induced SIRS) | microsomal CLint [1] [µL/min/mg] | Modulation of caspase-3/-7 activity (apoptosis) (Jurkat E6.1 cells)
CN1C(=O)C(Cc2c[nH]c3ccccc23)NC1=S (centres unmarked) [Nec-1, necrostatin-1] | all survived | fully protected from hypothermia | 59 | failed to modulate caspase activity
O=C(c1cnn(Cc2ccccc2)c1)N1CCOc2ccccc2C1 [SN-6109] | ~50% | gradually recovered their basal temperature in 48 h post-injection | 42 | no apoptosis modulation

From paper PMC7026080, “Phenotypic high-throughput screening platform identifies novel chemotypes for necroptosis inhibition” (Cell Death Discovery, 2020)
